Measurements from article PMC9271048, “Probing strigolactone perception mechanisms with rationally designed small-molecule agonists stimulating germination of root parasitic weeds” (Nature Communications, 2022).
Where two headings read alike, the source gives them in different places.

Assays:
[1] = Chemical reactivity analysis (HPLC, methanol/PBS pH 7.4); assay type: physicochemical; details: for half-life time (t1/2), source data average: Supplementary Fig. 10 source data, methanol/PBS pH 7.4, 26 °C
Experimental: Chemical reactivity is an important factor in the bioactivity of natural and synthetic SLs.
One hundred twenty microliters of sample solution was added to a solution of PBS (10 mM, pH 7.4, 810 μL) and methanol (270 μL). The solution was stirred vigorously for 30 s and then transferred to HPLC vial, and the vial was stored at 26 ± 1 °C. […] The analytical column was Extend-C18 (4.6 mm × 150 mm × 5 μm). The mobile phases were CH3CN and H2O (containing 0.1% HCO2H), VCH3CN:VH2O = 50:50, with a flow rate of 1 mL/min, and an injection volume of 5 μL. The percentage of remaining compounds in the solution was calculated from the peak area. The half-life times (t1/2) of samples were calculated.

ShHTL7 [2] = biological target: T1, ShHTL7 (Striga hermonthica, UniProt A0A0M3PNA2); experiment: biochemical; assay type: binding
T1 sequence (A0A0M3PNA2 entry or part of it): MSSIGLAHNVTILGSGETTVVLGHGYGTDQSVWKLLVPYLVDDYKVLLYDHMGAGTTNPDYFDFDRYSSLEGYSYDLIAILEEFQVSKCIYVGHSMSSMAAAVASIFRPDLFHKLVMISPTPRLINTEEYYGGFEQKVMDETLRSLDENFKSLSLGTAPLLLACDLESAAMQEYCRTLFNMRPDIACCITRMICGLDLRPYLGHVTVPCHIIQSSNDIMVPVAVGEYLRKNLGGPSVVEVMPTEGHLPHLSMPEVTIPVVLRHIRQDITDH
Outline: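 Surface plasmon resonance was run at 25 °C on ShHTL7 immobilized by amine coupling, using phosphate-buffered saline with 0.05% P20 and 0.5% DMSO. Each injection had 1 min association and 1 min dissociation, with a 50 μM screen followed by concentration series. KD was derived by kinetic analysis or steady-state affinity.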

ShHTL7 [3] = biological target: T1, ShHTL7; experiment: ShHTL7-hydrolysis reaction analysis (HPLC); assay type: biochemical; details: 10 μM compound, 30 °C, 30 min; for relative percentage of hydrolysis by ShHTL7, source data average: Supplementary Figs. 11, 20a, 24a
Outline: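 Compounds at 10 μM were incubated with 10 μg recombinant ShHTL7 or its mutants in PBS (pH 7.3) at 30 °C for 30 min, then quenched with methanol. The remaining compound was quantified by HPLC, and hydrolysis was expressed relative to a protein-free buffer control (n = 3).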

[4] = system: ShHTLs (10 HTL proteins in S. hermonthica); experiment: YLG-based competition assay on HTL proteins of S. hermonthica; assay type: biochemical, Striga hermonthica; details: Supplementary Fig. 27
From the text: In P. aegyptiaca, 5 KAI2s have been proposed as the SL receptors for the regulation of seed germination. […] The high sequence similarity may explain the consistency of these compounds in inducing germination in both S. hermonthica and P. aegyptiaca.
The excitation and emission wavelengths of YLG are 480 and 520 nm, respectively. We used a fluorescence spectrophotometer (CARY Eclipse) to detect the fluorescence intensity change of YLG during the enzymatic hydrolysis assay process. All the testing compounds and YLG were dissolved in DMSO and prepared as stock solutions just before use. […] The changes of fluorescence at 520 nm of each well were recorded every 1 min for 30 min. Using the reaction mixture without adding enzyme and tested compounds as the background control. After subtracting the background hydrolysis, a linear fluorescence increase in 8 min was used for further inspection. The IC50 values were determined via fitting relative inhibition percentages with the varying concentrations of compounds in Microsoft Excel.
Supplementary Fig. 27. Binding of compounds 4a, (R)- and (S)-4a, and 4g-i to the HTL proteins in S. hermonthica and KAI2 protein homologs in P. aegyptiaca. In the competitive inhibitory activity assay, YLG (3 µM) was used as the fluorogenic substrate. Error bar indicates SD (n = 3 biologically independent experiments).
(1 picture or pasted object on this page, not shown here)

[5] = Supplementary Table 7, binding affinities between ShHTL7 and agonists by SPR, read-out: KD/μM
[6] = ShHTL2, YLG competition, read-out: IC50, replicate 1
[7] = ShHTL2, YLG competition, read-out: IC50, replicate 2
[8] = ShHTL2, YLG competition, read-out: IC50, replicate 3
[9] = ShHTL2, average of 3 replicates, read-out: IC50, average
[10] = ShHTL3, YLG competition, read-out: IC50, replicate 1
[11] = ShHTL3, YLG competition, read-out: IC50, replicate 2
[12] = ShHTL3, YLG competition, read-out: IC50, replicate 3
[13] = ShHTL3, average of 3 replicates, read-out: IC50, average
[14] = ShHTL4, YLG competition, read-out: IC50, replicate 1
[15] = ShHTL4, YLG competition, read-out: IC50, replicate 2
[16] = ShHTL4, YLG competition, read-out: IC50, replicate 3
[17] = ShHTL4, average of 3 replicates, read-out: IC50, average
[18] = ShHTL5, YLG competition, read-out: IC50, replicate 1
[19] = ShHTL5, YLG competition, read-out: IC50, replicate 2
[20] = ShHTL5, YLG competition, read-out: IC50, replicate 3
[21] = ShHTL5, average of 3 replicates, read-out: IC50, average
[22] = ShHTL6, YLG competition, read-out: IC50, replicate 1
[23] = ShHTL6, YLG competition, read-out: IC50, replicate 2
[24] = ShHTL6, YLG competition, read-out: IC50, replicate 3
[25] = ShHTL6, average of 3 replicates, read-out: IC50, average
[26] = ShHTL8, YLG competition, read-out: IC50, replicate 1
[27] = ShHTL8, YLG competition, read-out: IC50, replicate 2
[28] = ShHTL8, YLG competition, read-out: IC50, replicate 3
[29] = ShHTL8, average of 3 replicates, read-out: IC50, average
[30] = ShHTL9, YLG competition, read-out: IC50, replicate 1
[31] = ShHTL9, YLG competition, read-out: IC50, replicate 2
[32] = ShHTL9, YLG competition, read-out: IC50, replicate 3
[33] = ShHTL9, average of 3 replicates, read-out: IC50, average
[34] = ShHTL10, YLG competition, read-out: IC50, replicate 1
[35] = ShHTL10, YLG competition, read-out: IC50, replicate 2
[36] = ShHTL10, YLG competition, read-out: IC50, replicate 3
[37] = ShHTL10, average of 3 replicates, read-out: IC50, average
[38] = ShHTL11, YLG competition, read-out: IC50, replicate 1
[39] = ShHTL11, YLG competition, read-out: IC50, replicate 2
[40] = ShHTL11, YLG competition, read-out: IC50, replicate 3
[41] = ShHTL11, average of 3 replicates, read-out: IC50, average

**Q.** With CC1=CC(CC(=O)N2CCN(C(=O)COc3ccc(Br)cc3C)CC2)OC1=O (stereo not shown) [4i] as the compound, how does the “reactivity in methanol/PBS” value ([1]; 1:3 methanol and PBS (10 mM) pH 7.4) read?
**A.** no apparent hydrolysis was observed in 6 days

**Q.** What about the “half-life time (t1/2), source data average” value [1] of the same compound?
**A.** >144 h

**Q.** And the Kd (ShHTL7 [2]; [5])?
**A.** 2.93 ± 0.087 µM

**Q.** And the “relative percentage of hydrolysis by ShHTL7, source data average” value (ShHTL7 [3])?
**A.** -2.582%

**Q.** And the IC50 [4, 6]?
**A.** 50.6 µM

**Q.** And the IC50 [4, 7]?
**A.** 70.1 µM

**Q.** And the IC50 [4, 8]?
**A.** 65.1 µM

**Q.** What about the IC50 [4, 9] of the same compound?
**A.** 61.9 µM

**Q.** And the IC50 [4, 10]?
**A.** > 100 µM

**Q.** And the IC50 [4, 11]?
**A.** > 100 µM

**Q.** And the IC50 [4, 12]?
**A.** > 100 µM

**Q.** What about the IC50 [4, 13] of the same compound?
**A.** > 100 µM

**Q.** What about the IC50 [4, 14] of the same compound?
**A.** 15 µM

**Q.** What about the IC50 [4, 15] of the same compound?
**A.** 21.2 µM

**Q.** And the IC50 [4, 16]?
**A.** 16.4 µM

**Q.** What about the IC50 [4, 17] of the same compound?
**A.** 17.5 µM

**Q.** What about the IC50 [4, 18] of the same compound?
**A.** 48.9 µM

**Q.** What about the IC50 [4, 19] of the same compound?
**A.** 42.2 µM

**Q.** What about the IC50 [4, 20] of the same compound?
**A.** 43 µM

**Q.** And the IC50 [4, 21]?
**A.** 44.7 µM

**Q.** What about the IC50 [4, 22] of the same compound?
**A.** 79.2 µM

**Q.** What about the IC50 [4, 23] of the same compound?
**A.** 55 µM

**Q.** What about the IC50 [4, 24] of the same compound?
**A.** 69.4 µM

**Q.** And the IC50 [4, 25]?
**A.** 67.9 µM

**Q.** And the IC50 [4, 26]?
**A.** 72.8 µM

**Q.** What about the IC50 [4, 27] of the same compound?
**A.** 71.1 µM

**Q.** What about the IC50 [4, 28] of the same compound?
**A.** 75.4 µM

**Q.** And the IC50 [4, 29]?
**A.** 73.1 µM

**Q.** What about the IC50 [4, 30] of the same compound?
**A.** 22.6 µM

**Q.** And the IC50 [4, 31]?
**A.** 24.8 µM

**Q.** And the IC50 [4, 32]?
**A.** 12.7 µM

**Q.** What about the IC50 [4, 33] of the same compound?
**A.** 20.1 µM

**Q.** And the IC50 [4, 34]?
**A.** 69.6 µM

**Q.** And the IC50 [4, 35]?
**A.** 67.6 µM

**Q.** What about the IC50 [4, 36] of the same compound?
**A.** 57.8 µM

**Q.** And the IC50 [4, 37]?
**A.** 65 µM

**Q.** What about the IC50 [4, 38] of the same compound?
**A.** 91.9 µM

**Q.** What about the IC50 [4, 39] of the same compound?
**A.** 101 µM

**Q.** What about the IC50 [4, 40] of the same compound?
**A.** 86 µM

**Q.** What about the IC50 [4, 41] of the same compound?
**A.** 93 µM

**Q.** With CC1=C[C@H](O/C=C2/C(=O)O[C@@H]3c4ccccc4C[C@H]23)OC1=O (racemic) [rac-GR24, reference compound] as the compound, how does the “half-life time (t1/2)” value ([1]; 1:3 methanol and PBS (10 mM) pH 7.4, HPLC) read?
**A.** 3.0 h

**Q.** And the “half-life time (t1/2), source data average” value [1]?
**A.** 3.031 h

**Q.** And the Kd (ShHTL7 [2]; [5])?
**A.** 0.93 ± 0.17 µM

**Q.** What about the Kd (ShHTL7 [2]; recombinant ShHTL7 immobilized on CM5 chip, 25 °C, read-out: KD (SPR)) of the same compound?
**A.** ~0.93 µM

**Q.** And the “hydrolysis by ShHTL7” value (ShHTL7 [3])?
**A.** 51.9%

**Q.** What about the “relative percentage of hydrolysis by ShHTL7, source data average” value (ShHTL7 [3]) of the same compound?
**A.** 51.9391%

**Q.** And the IC50 [4, 6]?
**A.** 26.2 µM

**Q.** What about the IC50 [4, 7] of the same compound?
**A.** 25.2 µM

**Q.** What about the IC50 [4, 8] of the same compound?
**A.** 25.5 µM

**Q.** What about the IC50 [4, 9] of the same compound?
**A.** 25.7 µM

**Q.** What about the IC50 [4, 10] of the same compound?
**A.** 9.4 µM

**Q.** And the IC50 [4, 11]?
**A.** 7.11 µM

**Q.** What about the IC50 [4, 12] of the same compound?
**A.** 8.7 µM

**Q.** What about the IC50 [4, 13] of the same compound?
**A.** 8.4 µM

**Q.** What about the IC50 [4, 14] of the same compound?
**A.** 0.239 µM

**Q.** And the IC50 [4, 15]?
**A.** 0.239 µM

**Q.** And the IC50 [4, 16]?
**A.** 0.28 µM

**Q.** And the IC50 [4, 17]?
**A.** 0.253 µM

**Q.** What about the IC50 [4, 18] of the same compound?
**A.** 5.89 µM

**Q.** What about the IC50 [4, 19] of the same compound?
**A.** 6.85 µM

**Q.** What about the IC50 [4, 20] of the same compound?
**A.** 6.74 µM

**Q.** What about the IC50 [4, 21] of the same compound?
**A.** 6.49 µM

**Q.** And the IC50 [4, 22]?
**A.** 2.28 µM

**Q.** What about the IC50 [4, 23] of the same compound?
**A.** 1.87 µM

**Q.** What about the IC50 [4, 24] of the same compound?
**A.** 2.23 µM

**Q.** And the IC50 [4, 25]?
**A.** 2.13 µM

**Q.** What about the IC50 [4, 26] of the same compound?
**A.** 6.15 µM

**Q.** What about the IC50 [4, 27] of the same compound?
**A.** 6.78 µM

**Q.** And the IC50 [4, 28]?
**A.** 4.51 µM

**Q.** And the IC50 [4, 29]?
**A.** 5.81 µM

**Q.** And the IC50 [4, 30]?
**A.** 4.91 µM

**Q.** And the IC50 [4, 31]?
**A.** 4.06 µM

**Q.** And the IC50 [4, 32]?
**A.** 5.17 µM

**Q.** What about the IC50 [4, 33] of the same compound?
**A.** 4.71 µM

**Q.** And the IC50 [4, 34]?
**A.** 4.93 µM

**Q.** What about the IC50 [4, 35] of the same compound?
**A.** 6.56 µM

**Q.** And the IC50 [4, 36]?
**A.** 5.51 µM

**Q.** And the IC50 [4, 37]?
**A.** 5.67 µM

**Q.** And the IC50 [4, 38]?
**A.** 3.27 µM

**Q.** And the IC50 [4, 39]?
**A.** 3.14 µM

**Q.** And the IC50 [4, 40]?
**A.** 3.16 µM

**Q.** And the IC50 [4, 41]?
**A.** 3.19 µM
